Broadly, the inhibition is the drop in the measured response relative to a control, in per cent. Usually LD50 stands for the dose at which mortality reaches 50%. Low values mean a more toxic substance, high ones a less toxic substance.

For data set [1], the system named is galactose-induced cataract. The experiment in a line: Galactose-induced cataract in rats. It is filed as in vivo, Sprague-Dawley rats. Conditions: for cataract estimation: number at Grade A^- / cataract estimation: number at Grade A^0: 50% galactose feed; for cataract estimation: number at Grade A^-: 7th day; for cataract estimation: number at Grade A^0: 10th day. On the procedure:
Male, Sprague-Dawley rats weighing 55 to 65 grams were used as test animals in this experiment. These were divided into three groups (normal group, 50%-galactose feed group, and drug-administered group). The normal group was given a commercial powdery feed (CE-2 of Clea Japan Inc.), and the other two groups were given the above normal feed further containing 50% galactose, with free access thereto in all cases. To the drug-administered group, was further administered PQQ orally (30 mg/Kg) or intraperitonealy (20 mg/Kg) once a day throughout the course of test. The lens was extracted from the test animals on the 7th and 10th days after the start of experiment, and cataract estimation was made according to the following standards: […]

For data set [2], the system named is chick lens aldose reductase. The experiment in a line: Inhibition of chick lens aldose reductase. It is filed as biochemical. On the procedure:
The activity of aldose reductase was measured according to the method of Kinoshita et al. [Metabolism, 28, 462-469 (1979)] using a homogenate of chick lens.
(§1) To a reaction solution containing the chick lens homogenate, Li2 SO4, NADPH2 and an inhibitor, was added dlglyceraldehyde as substrate to start the reaction, and the enzymatic activity was determined by measuring the decrease in optical density (OD) of NADPH2 at 340 nm after five minutes. A solution with no substrate added was used for the blank test. The inhibition rate against the aldose reductase reaction was calculated from the following equation: [formula]
An enzyme solution was prepared from chick lens in the same manner as in Test Example 4, and the inhibitory action of PQQ·H2 against aldose reductase was measured in the same way as in Test Example 4.
An enzyme solution was prepared from chick lens in the same manner as in Test Example 4, and the inhibitory action of PQQ·3Me against aldose reductase was measured in the same way as in Test Example 4.

The test system of data set [3] is egg cataract induced by hydrocortisone. Put plainly: Egg cataract induced by hydrocortisone. It is filed as in vivo, White-leghorn eggs. The procedure: White-leghorn eggs were incubated in a hatcher held at a temperature of 37° C. and a relative humidity of about 70%.
To the control and drug-administered groups, was administered at the air space 0.2 ml each of a solution of 0.12 mg hydrocortisone succinate (HC) in pure water on the 15th day after the start of incubation.
To the drug-administered group, was further injected PQQ 2 hours, or 2 and 5 hours, after HC administration.
The lens was extracted from each egg 48 hours after HC administration, and cataract estimation was made by the method of Nishigohri et al. [INVESTIGATIVE OPHTHALMOLOGY & VISUAL SCIENCE, 25, 1051 (1984)] according to the following standards: […]

Data set [4] deals with T1, bovine lens aldose reductase (Bos taurus, UniProt P16116).
T1 construct: A homogenate of bovine lens was centrifuged for ten minutes at 20,000 rpm under cooling; from tissue; host or cells: bovine lens (20,000 rpm supernatant of homogenate)
The experiment in a line: Inhibition of bovine lens aldose reductase. Format: biochemical. The procedure:
(§2) Specifically reaction was started by adding dl-glyceraldehyde as a substrate to a reaction solution containing rat lens homogenate, Li2 SO4, NADPH2 and inhibitor, and the enzyme activity was measured by the decrease of the optical absorption of NADPH2 (optical density: OD) at 340 nm for 5 min. The solution with no addition of the substrate was used for the blank OD. The inhibiting ratio for the aldose reductase reaction by the inhibitor was determined by the following equation: [formula]
The determination of enzyme activity was same as in Test Example 1 except enzyme source was bovine lens.
as §1
A homogenate of bovine lens was centrifuged for ten minutes at 20,000 rpm under cooling, the supernatant was collected as an enzyme solution, and the inhibitory action of PQQ against aldose reductase was measured in the same way as in Test Example 4.
A homogenate of bovine lens was centrifuged for ten minutes at 20,000 rpm under cooling, the supernatant was collected as an enzyme solution, and the inhibitory action of PQQ·H2 against bovine lens aldose reductase was measured in the same way as in Test Example 4.
An enzyme solution was prepared from chick lens in the same manner as in Test Example 9, and the inhibitory action of PQQ·3Me against bovine lens aldose reductase was measured in the same way as in Test Example 4.

Data set [5] is described as follows: Acute toxicity test, rat. Particulars: in vivo. An excerpt: (§3) Generally, pyrroloquinoline quinone (hereinafter referred to as PQQ) is a novel coenzyme different from conventional coenzyme NAD(P) or flavins for oxydation-reduction and it was initially found as a coenzyme for glucose dehydrogenase of Acinetobactor group. PQQ has a concern with the oxidizing reaction of alcohols, aldehydes, glucose and amines in an organism. Further, its growth promoting effect to a certain kind of micro-organisms,animal cells, plant cells has also been reported. Further, PQQ is also presented in the blood of mammal and, while its vitamin-like physiological activity is guessed, its biological roles has not yet been known at present. However, PQQ and its derivatives constitute the ingredients of an organism and considered to be a stable and non-toxic substance. This is apparent from the result of the acute toxicity test to mouse and rat described later.
(§4) Acute toxicity test of PQQ tri(dimethylamide)

In data set [6] the target is T2, human placental aldose reductase (Homo sapiens, UniProt P15121).
T2 construct: An enzyme solution was prepared from human placenta; from tissue; host or cells: human placenta
The experiment in a line: Inhibition of human placental aldose reductase. It is filed as biochemical. Particulars: human placenta enzyme. On the procedure: as §2
The determination of enzyme activity was same as in Test Example 1 except enzyme source was human placenta.
as §1
An enzyme solution was prepared from human placenta, and the inhibitory action of PQQ·2K against human placental aldose reductase was measured in the same way as in Test Example 4.
An enzyme solution was prepared from human placenta, and the inhibitory action of PQQ·3Me against human placental aldose reductase was measured in the same way as in Test Example 4.
An enzyme solution was prepared from human placenta, and the inhibitory action of PQQ·2Me.Et against human placental aldose reductase was measured in the same way as in Test Example 4.

A short description of data set [7]: Acute toxicity test, mouse. Particulars: in vivo.
From the text: as §3, §4

Setting [8] is: PQQ 0.25 mg/egg × 1, HC 0.12 mg/egg, 48 hours after HC.
Where [9] appears, read: PQQ 0.5 mg/egg × 1, HC 0.12 mg/egg, 48 hours after HC.
Setting [10] is: PQQ 0.5 mg/egg × 2, HC 0.12 mg/egg, 48 hours after HC.
Setting [11] is: PQQ 1.0 mg/egg × 1, HC 0.12 mg/egg, 48 hours after HC.

Regarding `O=C(O)c1cc(C(=O)O)c2c(n1)C(=O)C(=O)c1cc(C(=O)O)[nH]c1-2` [PQQ, pyrroloquinoline quinone], the “cataract estimation: number at Grade A^-” value in data set [1] (20 mg/Kg i.p. once a day) is 4/4; in data set [1] (30 mg/Kg p.o. once a day), 6/6. The “cataract estimation: number at Grade A^0” value was 2/2 in data set [1] (20 mg/Kg i.p. once a day) and 4/4 in data set [1] (30 mg/Kg p.o. once a day). Besides, the nebula formation entry in data set [1] (50%-galactose feed for seven days, both p.o. and i.p.) is reported as “no such nebula formation was observed at all”. The “change of cataract grade versus 50%-galactose feed group” value in data set [1] (50%-galactose feed over ten days) is “improvement by two grades”. Besides, in data set [2] (chick lens), the “concentration inhibiting the activity by 100%” value was 10^-4 M. Moreover, the IC50 in data set [2] (chick lens homogenate, read-out: concentration inhibiting the aldose reductase activity by 50%) was found to be 5000 nM; in data set [4] (bovine lens enzyme) it was 300 nM. Besides, the “Inhibition Rate” value was 100% in data set [2] (inhibitor 10^-4 M/reaction soln.); 82.1% in data set [2] (inhibitor 10^-5 M/reaction soln.); 13.9% in data set [2] (inhibitor 10^-6 M/reaction soln.); 0% in data set [2] (inhibitor 10^-7 M/reaction soln.); 0% in data set [2] (inhibitor 10^-8 M/reaction soln.). Moreover, the “effect on hydrocortisone-induced egg cataract” value in data set [3] (HC 0.12 mg on 15th day of incubation) is recorded as “evidently showed an effect of curing cataract”. Besides, the “cataract estimation: number at Grade I” value is reported as 2/8 in data set [3] (setting [8]), 2/10 in data set [3] (setting [9]) and 2/6 in data set [3] (setting [11]). Besides, the “cataract estimation: number at Grade III” value was 4/8 in data set [3] (setting [8]), 8/10 in data set [3] (setting [9]), 2/10 in data set [3] (setting [10]) and 2/6 in data set [3] (setting [11]). Further, the “cataract estimation: number at Grade IV” value in data set [3] (setting [8]) is given as 2/8. Also, the results for the “cataract estimation: number at Grade II” value in data set [3] (setting [10]) and in data set [3] (setting [11]) were 8/10 and 2/6, respectively. Also, in data set [4] (bovine lens, read-out: concentration inhibiting the activity by 100%), the IC100 stood at 1 µM. The inhibition at 10 µM in data set [4] (inhibitor 10^-5 M/reaction soln., read-out: Inhibition Rate) was 100%. Besides, the inhibition at 1 µM in data set [4] (inhibitor 10^-6 M/reaction soln., read-out: Inhibition Rate) was found to be 100%. Further, the inhibition at 0.1 µM in data set [4] (inhibitor 10^-7 M/reaction soln., read-out: Inhibition Rate) amounted to 35.9%. For the same compound, the inhibition at 0.01 µM in data set [4] (inhibitor 10^-8 M/reaction soln., read-out: Inhibition Rate) is 0%.
In the case of `CN(C)C(=O)c1cc(C(=O)N(C)C)c2c(n1)C(=O)C(=O)c1cc(C(=O)N(C)C)[nH]c1-2` [PQQ tri(dimethylamide)], the LD50 in data set [5] (oral) is > 5000 mg/kg; in data set [5] (sc, subcutaneous), > 1500 mg/kg; in data set [7] (oral) it was > 5000 mg/kg; in data set [7] (sc, subcutaneous), > 1500 mg/kg. The IC50 in data set [6] came out at 830 nM.

The record behind these values is patent US4898870A, “Pyrroloquinoline quinone compounds useful as an enzyme inhibitor” (Sogo Pharmaceutical Company Limited, priority 1986, dated 1990).
